Measurements taken from article PMC11855827, “High-Throughput Screening of Five Compound Libraries for Anthelmintic Activity and Toxicity Leads to the Discovery of Two Flavonoid Compounds” (International Journal of Molecular Sciences, 2025).
Where two headings read alike, the source gives them in different places. Values belong to the compound of their own block, whether it stands above or below them.

How the values were obtained:
[1] = system: mouse intestinal organoids (enteroids); experiment: Mouse intestinal organoids' tolerance assay (alamarBlue); settings: read-out: Citotoxicity CC50 (μM) Ent; mouse enteroid
C. elegans [2] = experiment: microbe, parasite or virus in culture; settings: Caenorhabditis elegans
[3] = system: H. contortus susceptible strain; experiment: Larval migration inhibition test (LMIT); set-up: species or system Haemonchus contortus; settings: L3, 100 μM, NE = Not Effective at 100 μM, control ivermectin 8.75 µg/mL
Excerpt: (§1) Eggs and third instar larvae (L3) of H. contortus from a field strain and a resistant strain of T. circumcincta were used in the current trials. These parasitic forms were obtained from fresh feces of Merino and Churra sheep experimentally infected at the experimental farm of the Instituto de Ganadería de Montaña (IGM, CSIC, Gruyeros, León, Spain) and purified according to previously described methods. Briefly, eggs were taken from fresh feces, washed, centrifuged and floated with a saturated sodium chloride solution, then concentrated, counted and used in the assays. L3 were obtained by culturing feces at 25 °C for 13 d. L3 larvae were […] in 0.5% sodium hypochlorite solution for 10 min at room temperature and washed to avoid excess salt. After washing, they were concentrated and counted for use.
(§2) The viability of H. contortus larvae was assessed by the larval migration inhibition test (LMIT) according to previously described methods. Briefly, 700 µL aliquots containing 500–600 L3 were prepared for each compound. […] After a 24 h incubation at 28 °C, the compound was removed by three washes, leaving a final volume of 1400 µL. After the washes, three 400 µL aliquots were taken from each tube and transferred to a 96-well plate with a MultiScreen mesh filter. The plates were incubated for a further 24 h at 28 °C to allow the motile L3 to pass through the 20 µm mesh for counting. Then, the number of larvae present in each well was counted to determine percentage of larval migration for each compound: % Larval migration=number of larvae migrating in compound wells/number of larvae migrating in negative control×100
(§3) For the larvae, ivermectin at 8.75 µg/mL and DMSO 0.5% (v/v) were used as controls and at least 12 replicates were performed. […] EC50 were determined by plotting the percentage of viability of the L1 against the concentration of each compound, using the nonlinear fit analysis provided by the SigmaPlot® 10.1.

HepG2 liver spheroids = experiment: Spheroids toxicity assay (alamarBlue); format: cell-based
Description: (§4) HepG2 cells were cultured as a monolayer under standard conditions, using DMEM/F12 medium supplemented with L-glutamine and 15 mM HEPES buffer (pH 7.2) supplemented with 10% fetal bovine serum (FBS) and antibiotic mixture (100 U/mL penicillin and 100 µg/mL streptomycin) at 37 °C and 5% CO2, according to previous published protocols.
(§5) Cells were detached from the culture flask using 0.25% trypsin solution and then centrifuged at 500× g for 6.5 min. After centrifugation, the supernatant was discarded, and the pellet was resuspended in culture medium. Cells were passed gently through a G27 needle several times and then counted. Cells were dispensed into a tissue treated Nunclon™ Sphera™ 96-well U-bottom plate (Thermo Scientific™, Waltham, MA, USA, 174925) in a final volume of 50 µL to a total of 2500 cells/well. In addition, another 50 µL of medium supplemented with Rat Tail Collagen I (Gibco™, Thermo Scientific™, Waltham, MA, USA, A1048301) was dispensed, to achieve a final concentration in a plate of 3 µg/mL for each well. The plate was centrifuged at 500× g for 1 min.
(§6) On Day 4, 100 µL of a serial dilution of the testing compounds were added to each well. For controls, 0.03% H2O2 (v/v) as positive control and 0.2% DMSO (v/v) as negative control were used.
(§7) To determine the viability of the spheroids to the testing compounds, a 20% of alamarBlue™ HS reagent (Invitrogen™, Thermo Fisher Scientific™, Waltham, MA, USA) was added on Day 7 and the results were read 24 h later using a Varioskan™ LUX (Thermo Scientific, USA, Instrument software ver. 1.00.37, Skanlt software ver. 5.0.0.42). All assays were conducted in duplicate across at least three independent experiments.

[4] = system: mouse intestinal organoids (enteroids); settings: C57BL/6, mouse
C. elegans [5] = experiment: C. elegans motility dose-response (DR) assay; set-up: species or system Caenorhabditis elegans
[6] = system: H. contortus susceptible strain; experiment: Egg hatch inhibition (EHI), ovicidal effect; set-up: species or system Haemonchus contortus; settings: for EC50: egg hatching, susceptible H. contortus, nine replicates, read-out: Ovicidal Effect EC50 (μM) H. c
C. elegans [7] = system: C. elegans
[8] = system: T. circumcincta resistant strain; experiment: Egg hatch inhibition (EHI), ovicidal effect; set-up: species or system Teladorsagia circumcincta; settings: for EC50: egg hatching, resistant T. circumcincta, nine replicates, read-out: Ovicidal Effect EC50 (μM) T. c
[9] = Globally Harmonized System (GHS) / ECHA; cited from earlier work
[10] = Mouse intestinal organoids' tolerance assay (alamarBlue); settings: C57BL/6, mouse; for selectivity ratio at 3 d: mouse intestinal organoids (enteroids)
[11] = Spheroids toxicity assay (alamarBlue); format: cell-based; settings: human; for selectivity ratio at 3 d: HepG2 liver spheroids
Description: as §4, §5, §6, §7

[12] = system: T. circumcincta resistant strain; experiment: Larval migration inhibition test (LMIT); set-up: species or system Teladorsagia circumcincta; settings: Teladorsagia circumcincta, 24 h; resistant strain, L3, 100 μM; NE = Not Effective at 100 μM; control ivermectin 8.75 µg/mL; read-out: T. circumcincta LMIT (%)
Excerpt: as §1, §2, §3

[13] = system: Staphylococcus epidermidis, Escherichia coli, and Candida albicans; set-up: method as in earlier work; settings: in vitro; cited from earlier work

Compound: O=C(/C=C/c1ccccc1)c1ccccc1 [Trans-chalcone]
CC50 [1]: > 50 µM
inhibition at 110 µM (C. elegans [2]; 0 h, read-out: Percentage of motility inhibition 0 h, Table S2, C. elegans SS assay, 110 μM, 0 h, averages of 4 data points): 17%
inhibition at 110 µM (C. elegans [2]; 24 h, read-out: Percentage of motility inhibition 24 h, Table S2, C. elegans SS assay, 110 μM, 24 h, averages of 4 data points): 96%
H. contortus LMIT (%) [3]: 20.3 ± 7.5%
CC50 (HepG2 liver spheroids; HepG2 liver spheroids, read-out: Citotoxicity CC50 (μM) Sph): > 90 µM
Selective Index (SI) CC50/EC50 Sph/H. c (HepG2 liver spheroids; human, pH 7.2): >29.0
Selective Index (SI) CC50/EC50 Sph/T. c (HepG2 liver spheroids; human, pH 7.2): >18.4
Selective Index (SI) CC50/EC50 Ent/H. c [4]: >16.1
Selective Index (SI) CC50/EC50 Ent/T. c [4]: >10.2
EC50 (C. elegans [5]; read-out: EC50 (μM) at 24 h, C. elegans motility, DR assay): 24.9 ± 1.8 µM
EC50 [6]: 3.1 ± 0.2 µM
H. contortus EHI (%) ([6]; susceptible strain, 100 μM, NE = Not Effective at 100 μM, control thiabendazole 0.1 µg/mL): 99.5 ± 0.7%
Inhibition (%) 110 μM (0 h) (C. elegans [7]; 0 h, 110 μM): 16 ± 17%
Inhibition (%) 110 μM (24 h) (C. elegans [7]; 24 h, 110 µM): 95 ± 5%
EC50 [8]: 4.9 ± 0.2 µM
T. circumcincta EHI (%) ([8]; resistant strain, 100 μM, NE = Not Effective at 100 μM, control thiabendazole 0.1 µg/mL): 99.9 ± 0.2%

EC50 (C. elegans [5]; Caenorhabditis elegans, 24 h, read-out: EC50 (μM) at 24 h, C. elegans motility, DR assay, 24 h): 6.9 ± 0.5 µM
Compound: CCCCCCCCN=c1ccn(CCCCCCCCCCn2ccc(=NCCCCCCCC)cc2)cc1 [Octenidine, reference compound]
GHS classification [9]: category 4: acute toxicity
CC50 at 3 d [10]: 14.2 ± 0.4 µM
selectivity ratio at 3 d ([10]; Selective Index (SI) CC50/EC50 Ent/H. c, CC50 mouse enteroid / EC50 H. contortus): 6.8
selectivity ratio at 3 d ([10]; Selective Index (SI) CC50/EC50 Ent/T. c, CC50 mouse enteroid / EC50 T. circumcincta): 0.9
inhibition at 110 µM (C. elegans [2]; 0 h, read-out: Inhibition (%) 110 μM (0 h), C. elegans L4 motility, 110 μM, 0 h, mean ± SD of four experiments): 84 ± 1%
inhibition at 110 µM (C. elegans [2]; 24 h, read-out: Inhibition (%) 110 μM (24 h), C. elegans L4 motility, 110 μM, 24 h, mean ± SD of four experiments): 96 ± 5%
inhibition at 100 µM ([3]; Haemonchus contortus, 24 h): 98.3 ± 0.3%
CC50 at 3 d ([11]; HepG2 liver spheroids (3D culture), read-out: Citotoxicity CC50 (μM) Sph): 54.1 ± 2.8 µM
selectivity ratio at 3 d ([11]; pH 7.2, CC50 HepG2 spheroids / EC50 H. contortus, read-out: Selective Index (SI) CC50/EC50 Sph/H. c): 25.8
selectivity ratio at 3 d ([11]; pH 7.2, CC50 HepG2 spheroids / EC50 T. circumcincta, read-out: Selective Index (SI) CC50/EC50 Sph/T. c): 3.6
inhibition at 100 µM [12]: 94.8 ± 4.3%
EC50 ([6]; Haemonchus contortus): 2.1 ± 0.1 µM
inhibition at 100 µM ([6]; Haemonchus contortus, susceptible strain, 100 μM, NE = Not Effective at 100 μM, control thiabendazole 0.1 µg/mL): 99.5 ± 0.8%
EC50 ([8]; Teladorsagia circumcincta): 15.1 ± 4.8 µM
inhibition at 100 µM ([8]; Teladorsagia circumcincta, resistant strain, 100 μM, NE = Not Effective at 100 μM, control thiabendazole 0.1 µg/mL): 99.5 ± 0.9%
Concentration leading to a microbial reduction of more than 99% within 15 min [13]: below 1.5 μM
